Experimental data from ChEMBL document CHEMBL1130662, “Preparation of meta-amidino-N,N-disubstituted anilines as potent inhibitors of coagulation factor Xa” (Bioorg Med Chem Lett, 1998).

Columns and labels:
Prothrombin = Prothrombin (Homo sapiens, UniProt P00734); experiment: Inhibition of serine protease thrombin enzyme.
Coagulation factor X [1] = target: T1, Coagulation factor X (Oryctolagus cuniculus, UniProt O19045); experiment: Inhibition of serine protease factor Xa enzyme.
T1 sequence (O19045 whole entry): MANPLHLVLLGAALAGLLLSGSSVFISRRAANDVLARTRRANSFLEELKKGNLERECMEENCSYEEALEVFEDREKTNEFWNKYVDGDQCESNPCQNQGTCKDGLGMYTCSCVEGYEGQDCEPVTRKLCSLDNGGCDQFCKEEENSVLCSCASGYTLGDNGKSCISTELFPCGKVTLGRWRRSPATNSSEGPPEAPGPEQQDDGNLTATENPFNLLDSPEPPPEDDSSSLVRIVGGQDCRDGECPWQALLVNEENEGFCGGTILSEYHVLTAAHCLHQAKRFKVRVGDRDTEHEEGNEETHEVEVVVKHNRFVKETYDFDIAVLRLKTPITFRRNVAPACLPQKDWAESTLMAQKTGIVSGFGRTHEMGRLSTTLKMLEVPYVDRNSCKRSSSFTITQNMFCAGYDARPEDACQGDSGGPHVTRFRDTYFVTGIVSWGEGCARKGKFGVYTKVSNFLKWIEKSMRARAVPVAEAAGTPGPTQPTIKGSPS

Trypsin = Trypsin (Homo sapiens, UniProt P07477+P07478+P35030); experiment: Inhibition of serine protease trypsin enzyme.; format: protein assay, Oryctolagus cuniculus
[2] = target: Tissue-type plasminogen activator (Homo sapiens, UniProt P00750); experiment: Compound was tested for the inhibition of serine protease tissue plasminogen activator enzyme.; set-up: species or system Oryctolagus cuniculus
Coagulation factor VII = target: T2, Coagulation factor VII (Homo sapiens, UniProt P08709); experiment: Compound was tested for the inhibition of serine protease factor VIIa enzyme.; set-up: species or system Oryctolagus cuniculus
T2 sequence (P08709 whole entry): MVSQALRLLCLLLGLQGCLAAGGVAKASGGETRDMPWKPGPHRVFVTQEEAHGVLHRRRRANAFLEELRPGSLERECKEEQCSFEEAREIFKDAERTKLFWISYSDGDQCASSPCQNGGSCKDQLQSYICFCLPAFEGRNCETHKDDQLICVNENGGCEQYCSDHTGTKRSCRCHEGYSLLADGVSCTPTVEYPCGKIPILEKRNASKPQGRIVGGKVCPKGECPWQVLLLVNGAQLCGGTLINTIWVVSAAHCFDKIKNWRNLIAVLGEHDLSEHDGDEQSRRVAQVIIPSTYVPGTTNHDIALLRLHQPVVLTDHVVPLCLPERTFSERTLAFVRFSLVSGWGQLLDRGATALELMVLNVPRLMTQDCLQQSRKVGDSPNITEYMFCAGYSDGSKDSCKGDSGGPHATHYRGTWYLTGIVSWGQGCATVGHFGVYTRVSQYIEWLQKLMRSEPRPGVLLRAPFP

Plasminogen = Plasminogen (Homo sapiens, UniProt P00747); experiment: Compound was tested for the inhibition of serine protease plasmin enzyme.; set-up: species or system Oryctolagus cuniculus
[3] = Compound was tested for the inhibition of serine protease complement factor I enzyme.; set-up: species or system Oryctolagus cuniculus
Coagulation factor X [4] = target: T1, Coagulation factor X; experiment: Compound was tested for the inhibition of serine protease factor Xa enzyme.

Sequence of Tissue-type plasminogen activator (P00750 whole entry): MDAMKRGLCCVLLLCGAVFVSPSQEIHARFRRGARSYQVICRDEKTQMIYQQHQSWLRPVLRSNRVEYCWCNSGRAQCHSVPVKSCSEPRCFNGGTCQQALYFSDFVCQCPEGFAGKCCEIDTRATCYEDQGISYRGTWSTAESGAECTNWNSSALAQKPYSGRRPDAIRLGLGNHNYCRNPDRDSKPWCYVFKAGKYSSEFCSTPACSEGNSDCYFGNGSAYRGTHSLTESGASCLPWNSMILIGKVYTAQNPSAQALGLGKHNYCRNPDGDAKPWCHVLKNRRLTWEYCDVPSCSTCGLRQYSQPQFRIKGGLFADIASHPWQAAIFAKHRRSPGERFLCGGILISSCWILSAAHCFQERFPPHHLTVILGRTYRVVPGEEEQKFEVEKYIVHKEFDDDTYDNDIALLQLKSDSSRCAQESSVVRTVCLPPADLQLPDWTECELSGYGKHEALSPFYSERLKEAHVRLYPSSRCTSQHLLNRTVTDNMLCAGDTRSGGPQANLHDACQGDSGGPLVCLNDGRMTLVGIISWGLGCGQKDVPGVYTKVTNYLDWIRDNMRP
Sequence of Plasminogen (P00747 97-580 limits assumed): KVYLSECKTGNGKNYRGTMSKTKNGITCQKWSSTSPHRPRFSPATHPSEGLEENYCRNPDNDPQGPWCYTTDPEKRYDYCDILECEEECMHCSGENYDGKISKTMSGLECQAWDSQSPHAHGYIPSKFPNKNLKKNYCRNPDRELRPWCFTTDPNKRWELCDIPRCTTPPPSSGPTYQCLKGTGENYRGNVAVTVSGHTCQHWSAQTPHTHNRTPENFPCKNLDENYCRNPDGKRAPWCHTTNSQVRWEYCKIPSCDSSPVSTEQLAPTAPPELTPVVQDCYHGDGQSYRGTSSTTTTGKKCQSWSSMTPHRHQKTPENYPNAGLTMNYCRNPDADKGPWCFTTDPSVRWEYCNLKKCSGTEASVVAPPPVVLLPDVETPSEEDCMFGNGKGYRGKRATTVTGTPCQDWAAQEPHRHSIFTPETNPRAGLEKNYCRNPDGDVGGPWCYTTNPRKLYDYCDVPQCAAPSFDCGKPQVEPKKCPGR
Sequence of Plasminogen (P00747 581-810 limits assumed): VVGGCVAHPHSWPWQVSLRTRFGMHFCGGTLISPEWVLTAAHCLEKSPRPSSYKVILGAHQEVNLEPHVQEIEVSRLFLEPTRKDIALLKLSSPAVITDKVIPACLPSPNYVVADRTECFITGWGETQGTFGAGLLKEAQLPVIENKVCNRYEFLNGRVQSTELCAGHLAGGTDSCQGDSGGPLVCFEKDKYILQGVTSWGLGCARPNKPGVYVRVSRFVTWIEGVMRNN

## N=C(N)c1cccc(N(CCCc2ccc(-c3ccccc3S(N)(=O)=O)cc2)CC(=O)O)c1.O=C(O)C(F)(F)F
Prothrombin
  Ki: 1400 nM
Coagulation factor X [1]
  Ki: 12 nM
Trypsin
  Ki: 470 nM

## N=C(N)c1cccc(N(CCCc2ccc(-c3ccccc3S(N)(=O)=O)cc2)CC(N)=O)c1.O=C(O)C(F)(F)F
Prothrombin
  Ki: 3500 nM
Coagulation factor X [1]
  Ki: 19 nM
Trypsin
  Ki: 820 nM

## COCCN(CCCc1ccc(-c2ccccc2S(N)(=O)=O)cc1)c1cccc(C(=N)N)c1.O=C(O)C(F)(F)F
Prothrombin
  Ki: 900 nM
Coagulation factor X [1]
  Ki: 11 nM
Trypsin
  Ki: 330 nM

## CC(=O)CN(CCCc1ccc(-c2ccccc2S(N)(=O)=O)cc1)c1cccc(C(=N)N)c1.O=C(O)C(F)(F)F
Prothrombin
  Ki: 900 nM
Coagulation factor X [1]
  Ki: 16 nM
Trypsin
  Ki: 360 nM

## CC(C)OC(=O)CN(CCCc1ccc(-c2ccccc2S(N)(=O)=O)cc1)c1cccc(C(=N)N)c1.O=C(O)C(F)(F)F
Prothrombin
  Ki: 500 nM
Coagulation factor X [1]
  Ki: 7.5 nM
Trypsin
  Ki: 74 nM

## N=C(N)c1cccc(NS(=O)(=O)CCc2ccc(-c3ccccc3S(N)(=O)=O)cc2)c1.O=C(O)C(F)(F)F
Prothrombin
  Ki: 17000 nM
Coagulation factor X [1]
  Ki: 51 nM
Trypsin
  Ki: 1400 nM

## COC(=O)CN(CCc1ccc(-c2ccccc2S(N)(=O)=O)cc1)c1cccc(C(=N)N)c1.O=C(O)C(F)(F)F
Prothrombin
  Ki: 400 nM
Coagulation factor X [1]
  Ki: 10 nM
Trypsin
  Ki: 56 nM

## COC(=O)CN(CCCc1ccc(-c2ccccc2S(N)(=O)=O)cc1)c1cccc(C(=N)N)c1.O=C(O)C(F)(F)F
Prothrombin
  Ki: 200 nM
Coagulation factor X [1]
  Ki: 1.3 nM
[2]
  Ki: 33 µM
Trypsin
  Ki: 39 nM
Coagulation factor VII
  Ki: 4.2 µM
Plasminogen
  Ki: 300 nM
[3]
  IC50: 10 µM

## COC(=O)CN(c1cccc(C(=N)N)c1)S(=O)(=O)CCc1ccc(-c2ccccc2S(N)(=O)=O)cc1.O=C(O)C(F)(F)F
Prothrombin
  Ki: 9000 nM
Coagulation factor X [1]
  Ki: 21 nM
Trypsin
  Ki: 180 nM

## CC(=N)N1CC[C@H](Oc2ccc([C@H](Cc3ccc4ccc(C(=N)N)cc4c3)C(=O)O)cc2)C1 [DX-9065A]
Coagulation factor X [4]
  IC50: 41 nM

## N=C(N)c1cccc(N(CCCc2ccc(-c3ccccc3S(N)(=O)=O)cc2)CCOc2ccccc2)c1
Prothrombin
  Ki: 300 nM
Coagulation factor X [1]
  Ki: 16 nM

## CC(C)OC(=O)CN(c1cccc(C(=N)N)c1)S(=O)(=O)CCc1ccc(-c2ccccc2S(N)(=O)=O)cc1.O=C(O)C(F)(F)F
Prothrombin
  Ki: 15000 nM
Coagulation factor X [1]
  Ki: 37 nM
Trypsin
  Ki: 220 nM

## COC(=O)CC1(C(=O)Nc2ccc(-c3ccccc3S(N)(=O)=O)cc2)CC(c2cccc(C(=N)N)c2)=NO1 (stereo not given)
Coagulation factor X [1]
  Ki: 6.3 nM

## N=C(N)c1cccc(N(CCO)CCCc2ccc(-c3ccccc3S(N)(=O)=O)cc2)c1.O=C(O)C(F)(F)F
Prothrombin
  Ki: 1800 nM
Coagulation factor X [1]
  Ki: 17 nM
Trypsin
  Ki: 710 nM

## COC(=O)CC(CCc1ccc(C(=N)N)cc1)c1cccc(C(=N)N)c1 (stereo not given)
Coagulation factor X [1]
  Ki: 34 nM

## COC(=O)CN(CCOc1ccc(-c2ccccc2S(N)(=O)=O)cc1)c1cccc(C(=N)N)c1.O=C(O)C(F)(F)F
Prothrombin
  Ki: 200 nM
Coagulation factor X [1]
  Ki: 0.53 nM
Trypsin
  Ki: 19 nM

## COC(=O)CN(CCCOc1ccc(-c2ccccc2S(N)(=O)=O)cc1)c1cccc(C(=N)N)c1.O=C(O)C(F)(F)F
Prothrombin
  Ki: 600 nM
Coagulation factor X [1]
  Ki: 6.7 nM
Trypsin
  Ki: 77 nM

## CC(C)OC(=O)CN(CCOc1ccc(-c2ccccc2S(N)(=O)=O)cc1)c1cccc(C(=N)N)c1.O=C(O)C(F)(F)F
Prothrombin
  Ki: 300 nM
Coagulation factor X [1]
  Ki: 2.1 nM
Trypsin
  Ki: 52 nM

## COC(=O)CC1(C(=O)Nc2ccc(C(=N)N)cc2)CC(c2cccc(C(=N)N)c2)=NO1 (stereo not given)
Coagulation factor X [1]
  Ki: 94 nM

## N=C(N)c1cccc(NCCCc2ccc(-c3ccccc3S(N)(=O)=O)cc2)c1.O=C(O)C(F)(F)F
Prothrombin
  Ki: 6100 nM
Coagulation factor X [1]
  Ki: 83 nM
Trypsin
  Ki: 850 nM
